Laboratory results as given in the supplement of paper PMC5908809.

Tests used:
[1] = system: normal primary NK cells, pool 1 (3 donors), resting (IL-2 0 ng/mL); assay: percent inhibition of viability; higher = more inhibition; conditions: 72 h
[2] = system: normal primary NK cells, pool 3 (3 donors) (IL-2 2.5 ng/mL); assay: as above; conditions: 72 h
[3] = system: normal primary NK cells, pool 2 (3 donors) (IL-2 2.5 ng/mL); assay: as above; conditions: 72 h
[4] = system: IMC-1 (IL-2 20 ng/mL); assay: as above; conditions: 72 h
[5] = system: SNK-6 (IL-2 2.5 ng/mL); assay: as above; conditions: 72 h
[6] = system: NKL (IL-2 2.5 ng/mL); assay: as above; conditions: 72 h
[7] = system: KHYG-1 (IL-2 2.5 ng/mL); assay: as above; conditions: 72 h
[8] = system: NK-92 (IL-2 2.5 ng/mL); assay: as above; conditions: 72 h
[9] = system: normal primary NK cells, pool 1 (3 donors) (IL-2 2.5 ng/mL); assay: as above; conditions: 72 h
[10] = system: NK-YS (IL-2 2.5 ng/mL); assay: as above; conditions: 72 h
[11] = system: YT (IL-2 2.5 ng/mL); assay: as above; conditions: 72 h
[12] = system: KAI3 (IL-2 2.5 ng/mL); assay: as above; conditions: 72 h
[13] = system: DERL-7 (IL-2 2.5 ng/mL); assay: as above; conditions: 72 h
[14] = system: normal NK cells expanded with K562-aAPC; assay: as above; conditions: 72 h, IL-2 2.5 ng/mL
Experimental: (§1)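 Drug sensitivity and resistance testing on K562-aAPC-expanded normal NK cells: 5 concentrations (10-fold steps over a 10,000-fold range), 72 h at 37 °C, viability by CellTiter-Glo normalised to DMSO and benzethonium chloride controls; DSS from the fitted curve.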

[15] = system: normal NK cells expanded with K562-aAPC; assay: drug sensitivity score (DSS) (DSS units); higher = more sensitive; extreme values may be limits of the assay; conditions: 72 h; IL-2 2.5 ng/mL
Experimental: as §1

[16] = system: normal primary NK cells, pool 1 (3 donors), resting (IL-2 0 ng/mL); assay: as above; conditions: 72 h
[17] = system: normal primary NK cells, pool 3 (3 donors) (IL-2 2.5 ng/mL); assay: as above; conditions: 72 h
[18] = system: normal primary NK cells, pool 2 (3 donors) (IL-2 2.5 ng/mL); assay: as above; conditions: 72 h
[19] = system: IMC-1 (IL-2 20 ng/mL); assay: as above; conditions: 72 h
[20] = system: SNK-6 (IL-2 2.5 ng/mL); assay: as above; conditions: 72 h
[21] = system: NKL (IL-2 2.5 ng/mL); assay: as above; conditions: 72 h
[22] = system: KHYG-1 (IL-2 2.5 ng/mL); assay: as above; conditions: 72 h
[23] = system: NK-92 (IL-2 2.5 ng/mL); assay: as above; conditions: 72 h
[24] = system: normal primary NK cells, pool 1 (3 donors) (IL-2 2.5 ng/mL); assay: as above; conditions: 72 h
[25] = system: NK-YS (IL-2 2.5 ng/mL); assay: as above; conditions: 72 h
[26] = system: YT (IL-2 2.5 ng/mL); assay: as above; conditions: 72 h
[27] = system: KAI3 (IL-2 2.5 ng/mL); assay: as above; conditions: 72 h
[28] = system: DERL-7 (IL-2 2.5 ng/mL); assay: as above; conditions: 72 h

COc1cc2nccc(Oc3ccc(NC(=O)NC4CC4)c(Cl)c3)c2cc1C(N)=O [Lenvatinib] (max concentration tested 2500 nM)
percent inhibition of viability [%]
Conditions	0.25 nM	2.5 nM	25 nM	250 nM	2500 nM
[1]	-5.39	10.9	5.68	1.5	8.67
[2]	-0.41	-2.47	2.78	-8.95	-1.48
[3]	-4.17	-2.51	-1.07	-9.36	-5.82
[4]	-6.27	-2.01	-2.37	0.43	3.18
[5]	-33.9	-23.3	-21.9	-19.5	-12.3
[6]	-6.25	-5.72	2.51	23.8	33.6
[7]	-6.43	-1.14	-3.61	2.55	13.7
[8]	-9.84	0.14	-0.46	17.2	37.8
[9]	-3.95	5.45	5.1	3.42	13.3
[10]	-8.22	-3.14	-1.94	6.7	25.7
[11]	-8.36	-6.83	-3.92	0.74	22.8
[12]	-5.44	0.76	3.58	15.2	41.1
[13]	-0.62	1.25	2.95	-3.62	5.92
[14]	-4.04	-5.14	-2.63	6.46	19.2

Conditions	drug sensitivity score
[15]	1.26
[16]	0
[17]	0
[18]	0.89
[19]	0
[20]	0.89
[21]	4.35
[22]	0.34
[23]	4.08
[24]	0.01
[25]	1.95
[26]	0.88
[27]	3.76
[28]	0

Nc1cccc2c1C(=O)N(C1CCC(=O)NC1=O)C2=O (stereo not drawn) [Pomalidomide] (max concentration tested 10000 nM)
percent inhibition of viability [%]
Conditions	1 nM	10 nM	100 nM	1000 nM	10000 nM
[1]	-1.02	-19.1	-32.7	-20.7	-23.7
[2]	-16	7.94	-8.83	-7.7	-5.51
[3]	-13.3	1.17	-2.18	-2.49	-1.88
[4]	-4	-1.04	-2.22	-4.13	-2.92
[5]	-0.98	3.29	13.5	-10.9	31.7
[6]	-6.14	-8.75	7.72	18.5	21.2
[7]	-4.54	-1.13	-5.7	-4.26	-0.94
[8]	-1.19	-10.2	-3.35	-12.4	-16.6
[9]	-3.59	-0.54	-10.1	9.65	3.39
[10]	-3.69	-2.34	-5.2	-2.26	-0.5
[11]	-5.53	-2.96	-0.67	-5.5	-0.71
[12]	-0.58	-8.97	-7.97	-13.6	-12.9
[13]	-0.13	-4.4	15.2	-7.7	-4.17
[14]	-10.8	-9.91	-9.37	-11.8	-8.13

Conditions	drug sensitivity score
[15]	0
[16]	0
[17]	0
[18]	0
[19]	0
[20]	0.99
[21]	3.93
[22]	0
[23]	0
[24]	0
[25]	0
[26]	0
[27]	0
[28]	0
